One molecule from paper PMC3722588 (Journal of the American Chemical Society, 2013) can be followed below.

This test concerns the target T184C MMP12 catalytic domain (Mus musculus, UniProt P34960, T184C). The test is described as follows: Gel labeling of recombinant enzyme spiked in rat liver lysates. It is filed as binding. To be noted: 10 μM pretreatment before TND124, rat liver lysates.

Sequence of T184C MMP12 catalytic domain (P34960 29-267 T184C): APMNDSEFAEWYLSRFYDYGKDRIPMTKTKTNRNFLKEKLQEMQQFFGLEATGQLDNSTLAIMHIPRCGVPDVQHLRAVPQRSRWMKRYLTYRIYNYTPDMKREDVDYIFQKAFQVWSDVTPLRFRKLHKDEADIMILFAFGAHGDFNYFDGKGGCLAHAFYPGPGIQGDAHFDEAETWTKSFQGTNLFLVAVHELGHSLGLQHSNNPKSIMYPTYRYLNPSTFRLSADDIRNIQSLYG

On to `CNC(=O)[C@H](Cc1c[nH]c2ccccc12)NC(=O)[C@@H](CC(=O)NO)CC(C)C` [GM6001], for which the “Blocking of TND124 labeling by pretreatment” value was “completely blocked labeling”.
